According to patent publication US4182897A, “Amino- or guanidino-phenylpropionic acid derivatives” (Torii & Co., Ltd., priority 1977, dated 1980):
Counter-ions that a name gives are not always drawn. Like-named read-outs stand apart in the source and are kept apart here.

Experiments:
Type in all cases: biochemical
[1] = target: T1, Trypsin (Bos taurus, UniProt P00760); test: Inhibitory effect on ester-hydrolyzing activity of trypsin (TAMe substrate); conditions: for IC50 / inhibitory action on trypsin: in vitro; for IC50: tosylarginine methyl ester hydrolysis, read-out: ID50 (trypsin); for inhibition at 1000 µM: read-out: percent inhibition at 10^-3 M (trypsin)
T1 sequence (P00760 24-246): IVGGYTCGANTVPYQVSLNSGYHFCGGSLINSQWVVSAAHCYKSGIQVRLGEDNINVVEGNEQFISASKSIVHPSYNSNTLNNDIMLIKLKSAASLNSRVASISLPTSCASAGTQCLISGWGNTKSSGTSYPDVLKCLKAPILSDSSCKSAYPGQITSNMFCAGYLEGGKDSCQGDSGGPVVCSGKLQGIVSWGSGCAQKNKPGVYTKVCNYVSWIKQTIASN
Description: (A) Determination of Enzyme-inhibitory Activity: The enzyme-inhibitory activities in vitro of the compounds of this invention were measured by the following procedure according to the method of M. Muramatsu et al. [[…]. Makino, Y. Hayashi and S. Fujii: J. […] Then, 10 μmoles of the substrate, TAMe (tosylarginine methyl ester), was added, and incubation was performed at 37° C. for 30 minutes. After the incubation, 1.5 ml of 2 M alkaline hydroxylamine was added and thoroughly mixed, and allowed to stand at room temperature for 15 minutes.

[2] = target: Human Plasma Kallikrein (Homo sapiens, UniProt P03952); test: Inhibitory effect on ester-hydrolyzing activity of human plasma kallikrein (TAMe substrate); conditions: for inhibitory action on kallikrein: in vitro; for inhibition at 1000 µM: read-out: percent inhibition at 10^-3 M (kallikrein)
Chain of Human Plasma Kallikrein (P03952 391-638 limits assumed): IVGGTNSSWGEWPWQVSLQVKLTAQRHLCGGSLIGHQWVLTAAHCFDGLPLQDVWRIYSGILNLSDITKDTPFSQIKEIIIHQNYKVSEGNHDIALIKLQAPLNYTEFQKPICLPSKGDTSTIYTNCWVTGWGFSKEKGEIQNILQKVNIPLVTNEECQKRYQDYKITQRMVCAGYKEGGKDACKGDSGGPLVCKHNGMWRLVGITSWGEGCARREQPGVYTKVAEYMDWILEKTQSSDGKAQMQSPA
Chain of Human Plasma Kallikrein (P03952 20-390 partner limits assumed): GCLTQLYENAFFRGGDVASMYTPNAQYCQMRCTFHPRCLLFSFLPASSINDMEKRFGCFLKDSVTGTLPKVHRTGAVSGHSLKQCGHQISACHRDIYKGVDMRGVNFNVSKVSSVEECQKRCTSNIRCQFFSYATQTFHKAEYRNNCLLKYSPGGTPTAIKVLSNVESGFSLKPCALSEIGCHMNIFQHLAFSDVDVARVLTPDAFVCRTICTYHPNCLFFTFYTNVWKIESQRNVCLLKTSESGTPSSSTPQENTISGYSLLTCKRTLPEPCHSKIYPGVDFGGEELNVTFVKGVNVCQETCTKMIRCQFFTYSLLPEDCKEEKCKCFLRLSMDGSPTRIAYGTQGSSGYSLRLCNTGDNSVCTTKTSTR
Description: (A) Determination of Enzyme-inhibitory Activity: The enzyme-inhibitory activities in vitro of the compounds of this invention were measured by the following procedure according to the method of M. Muramatsu et al. [[…]. Makino, Y. Hayashi and S. Fujii: J.

[3] = target: T2, Human Cl Esterase (Homo sapiens, UniProt P09871); test: Inhibitory effect on ester-hydrolyzing activity of human Cl esterase (ATEe substrate); conditions: for inhibitory action on Cl esterase / IC50: in vitro; for inhibition at 1000 µM: read-out: percent inhibition at 10^-3 M (Cl esterase); for IC50: acetyltyrosine ethyl ester hydrolysis, read-out: ID50 (Cl esterase)
T2 sequence (P09871 438-688 limits assumed): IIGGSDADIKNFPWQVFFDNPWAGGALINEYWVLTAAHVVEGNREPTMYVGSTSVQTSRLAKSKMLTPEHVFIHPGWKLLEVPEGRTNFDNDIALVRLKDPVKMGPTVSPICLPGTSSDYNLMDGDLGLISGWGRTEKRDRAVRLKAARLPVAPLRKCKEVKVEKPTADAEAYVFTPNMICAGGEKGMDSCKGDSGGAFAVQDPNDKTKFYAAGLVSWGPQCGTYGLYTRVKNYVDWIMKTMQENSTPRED
T2 sequence (P09871 16-437 partner limits assumed): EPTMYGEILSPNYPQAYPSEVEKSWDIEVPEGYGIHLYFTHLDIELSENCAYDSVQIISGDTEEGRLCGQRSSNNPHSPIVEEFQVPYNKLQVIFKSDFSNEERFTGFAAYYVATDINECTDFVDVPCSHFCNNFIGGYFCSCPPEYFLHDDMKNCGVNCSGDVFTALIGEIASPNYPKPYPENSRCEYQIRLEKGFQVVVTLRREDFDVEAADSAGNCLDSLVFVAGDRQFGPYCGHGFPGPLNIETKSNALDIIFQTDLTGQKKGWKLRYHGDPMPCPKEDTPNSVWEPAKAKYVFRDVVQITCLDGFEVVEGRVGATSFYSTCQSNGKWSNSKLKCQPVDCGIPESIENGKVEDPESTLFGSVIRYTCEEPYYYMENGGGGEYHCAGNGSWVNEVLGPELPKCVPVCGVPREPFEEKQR
Description: It was measured by using 0.1 ml of Cl esterase, 0.1 ml of 0.02 M sodium phosphate buffer solution (pH 7.4) and 10 μmoles of ATEe (acetyltyrosine ethyl ester) as substrate following the method described in (1).

[4] = target: Bovine Thrombin (Bos taurus, UniProt P00735); test: Inhibitory effect on ester-hydrolyzing activity of bovine thrombin (TAMe substrate); conditions: for inhibition at 1000 µM: read-out: percent inhibition at 10^-3 M (thrombin); for inhibitory action on thrombin: in vitro
Description: (4) Inhibitory Effect on Ester-Hydrolyzing Activity of Bovine Thrombin
It was measured by using 0.4 ml of bovine thrombin […], 0.02 M sodium phosphate buffer solution (pH 7.4) and TAMe as substrate following the method described in (1).

[5] = target: Human Plasmin (Homo sapiens, UniProt P00747); test: Inhibitory effect on ester-hydrolyzing activity of human plasmin (TAMe substrate); conditions: for inhibitory action on plasmin: in vitro; for inhibition at 1000 µM: read-out: percent inhibition at 10^-3 M (plasmin)
Chain of Human Plasmin (P00747 581-810 limits assumed): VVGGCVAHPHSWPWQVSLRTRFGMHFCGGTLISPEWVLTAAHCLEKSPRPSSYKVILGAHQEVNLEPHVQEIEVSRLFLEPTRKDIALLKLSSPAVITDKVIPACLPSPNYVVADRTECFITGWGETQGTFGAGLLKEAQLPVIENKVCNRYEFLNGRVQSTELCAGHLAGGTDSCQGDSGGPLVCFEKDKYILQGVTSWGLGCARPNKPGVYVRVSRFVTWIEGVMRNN
Chain of Human Plasmin (P00747 97-580 partner limits assumed): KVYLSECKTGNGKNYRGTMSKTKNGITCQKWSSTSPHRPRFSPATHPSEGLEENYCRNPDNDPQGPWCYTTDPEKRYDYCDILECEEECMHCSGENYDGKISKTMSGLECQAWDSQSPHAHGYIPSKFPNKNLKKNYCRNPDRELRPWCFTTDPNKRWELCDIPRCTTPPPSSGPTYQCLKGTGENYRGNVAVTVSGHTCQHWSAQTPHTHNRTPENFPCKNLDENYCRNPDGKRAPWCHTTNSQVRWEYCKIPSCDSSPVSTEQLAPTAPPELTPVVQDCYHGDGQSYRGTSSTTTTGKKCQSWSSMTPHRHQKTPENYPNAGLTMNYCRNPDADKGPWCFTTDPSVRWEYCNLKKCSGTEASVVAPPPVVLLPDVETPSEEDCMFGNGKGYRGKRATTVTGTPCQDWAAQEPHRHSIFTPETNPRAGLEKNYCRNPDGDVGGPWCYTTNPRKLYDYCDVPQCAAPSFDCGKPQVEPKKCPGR
Description: (A) Determination of Enzyme-inhibitory Activity: The enzyme-inhibitory activities in vitro of the compounds of this invention were measured by the following procedure according to the method of M. Muramatsu et al. [[…]. Makino, Y. Hayashi and S. Fujii: J. […] (2) Inhibitory Effect on Ester-hydrolyzing Activity of Human Plasmin It was measured by using 0.1 ml of plasmin (generated by activation of plasminogen with streptokinase) and TAMe as substrate following the method described in (1).

SMILES	IC50 [1] [µM]	inhibitory action on kallikrein [2]	inhibition at 1000 µM [2] [%]	inhibitory action on trypsin [1]	inhibition at 1000 µM [1] [%]	inhibitory action on Cl esterase [3]	inhibition at 1000 µM [3] [%]	IC50 [4] [µM]	inhibitory action on plasmin [5]	inhibition at 1000 µM [5] [%]	IC50 ([1]; 30 min) [µM]	inhibition at 1000 µM [4] [%]	IC50 [3] [µM]	inhibitory action on thrombin [4]
CC(Cc1ccc(N)cc1)C(=O)Oc1ccc(Cl)cc1 (stereo not drawn) [Compound No. 2, p-Chlorophenyl α-methyl-β-(p-aminophenyl)-propionate hydrochloride]	330	–	–	–	–	–	–	–	–	–	–	–	–	–
Cl.Nc1ccc(CCC(=O)Oc2ccccc2)cc1 [Compound No. 3, Phenyl β-(p-aminophenyl)-propionate hydrochloride]	–	no inhibitory action	< 10	no inhibitory action	< 10	no inhibitory action	< 10	290	no inhibitory action	< 10	–	–	–	–
CCC(Cc1cccc(N)c1)C(=O)Oc1ccc(OC)cc1 (stereo not drawn) [Compound No. 4, p-Methoxyphenyl α-ethyl-β-(m-aminophenyl)-propionate hydrochloride]	–	–	< 10	–	–	–	14.8	–	–	< 10	400	< 10	–	–
CC(Cc1cccc(NC(=N)N)c1)C(=O)Oc1ccc(Cl)cc1 (stereo not drawn) [Compound No. 44, p-Chlorophenyl α-methyl-β-(m-guanidinophenyl)-propionate carbonate]	–	–	–	–	–	–	–	–	–	–	–	–	250	–
Cc1ccc(OC(=O)C(C)Cc2ccc(NC(=N)N)cc2)cc1 (stereo not drawn) [Compound No. 45, p-Methylphenyl α-methyl-β-(p-guanidinophenyl)-propionate hydrochloride]	–	–	< 10	–	21.4	–	–	–	–	< 10	–	< 10	780	–
CC(Cc1cccc(NC(=N)N)c1)C(=O)Oc1ccccc1.O=C(O)O (stereo not drawn) [Compound No. 46, Phenyl α-methyl-β-(m-guanidinophenyl)-propionate carbonate]	–	no inhibitory action	12.9	no inhibitory action	12.2	–	–	–	no inhibitory action	< 10	–	< 10	310	no inhibitory action
CCOC(=O)c1ccc(OC(=O)CCc2ccc(NC(=N)N)cc2)cc1.Cl [Compound No. 47, p-Ethoxycarbonylphenyl β-(p-guanidinophenyl)-propionate hydrochloride]	78	no inhibitory action	36	–	–	no inhibitory action	< 10	–	no inhibitory action	< 10	–	12.3	–	no inhibitory action
CC(Cc1cccc(N)c1)C(=O)Oc1ccc(Cl)cc1 (stereo not drawn) [compound 5, p-chlorophenyl α-methyl-β-(m-aminophenyl)-propionate]	10	–	< 10	–	–	–	< 10	–	–	< 10	–	< 10	–	–
CCOC(=O)c1ccc(OC(=O)C(CC)Cc2ccc(N)cc2)cc1 (stereo not drawn) [compound 36, p-ethoxycarbonylphenyl α-ethyl-β-(p-aminophenyl)-propionate]	170	–	15.9	–	–	–	< 10	–	–	< 10	–	25.3	–	–
CC(Cc1ccc(NC(=N)N)cc1)C(=O)Oc1ccc(Cl)cc1 (stereo not drawn) [compound 52, p-chlorophenyl α-methyl-β-(p-guanidinophenyl)-propionate]	490	–	38.4	–	–	–	–	–	–	18.8	–	< 10	56	–
CCC(Cc1cccc(NC(=N)N)c1)C(=O)Oc1ccccc1 (stereo not drawn) [compound 65, phenyl α-ethyl-β-(m-guanidinophenyl)-propionate]	–	–	15.6	–	35	–	–	–	–	< 10	–	16.8	70	–
